The test system of data set [1] is mitochondria of triticale microspores. Kind of data set: qRT-PCR of gfp mRNA, microspores transfected with pWMaadA16GFP. The class given is cell-based. As to conditions: gfp reporter construct. From the text:
FIG. 17 is a plot showing the level of expression (fold increase, average of 4 replicates) of GFP in triticale microspores transfected with the pWMaadA16GFP plasmid in the presence of mTP1 (SEQ ID NO: 1), mTP2 (SEQ ID NO: 2), mTP3 (SEQ ID NO: 3), mTP4 (SEQ ID NO: 4) or mTP5 (SEQ ID NO: 5) compared to the level of expression (fold increase) of the internal control elongation factor 1a (EF1a), as measured by quantitative real time PCR of mRNA levels;
(§1) Wheat mitochondrial aadA16GFP reporter plasmid (pWMaadA16GFP, FIG. 11) is a 4587 base pair wheat specific mitochondrial transformation vector, which targets insertions into the fourth repeat region between the trnfM and rm18 gene cluster which is repeated three times in the Triticum aestivum mitochondrial genome. The insertion site is in the Triticum aestivum mitochondrial genome at nucleotides 300805-300878 and 300880-302834 (GenBank accession No. AP008982.1). A multiple cloning site is introduced following the tmfM target insertion sequence. The selection marker gene is an organelle codon specific aad-gfp fusion gene, which facilitates a dual selection method of spectinomycin resistance through an aadA derivative and visual detection by GFP fluorescence (GenBank accession No. ABX39486; Khan and Maliga, Nat. Biotechnol. (1999 September) 17(9): 910-5). The selection marker gene is driven by the Triticum aestivum mitochondrial atpA gene promoter (GenBank accession No. X54387.1). The aad-gfp fusion gene is terminated with the TpsbA terminator sequence derived from the Triticum aestivum mitochondrial genome at nucleotides 62871-62565 (GenBank accession No. AP008982.1).
The dsDNA construct (pWMaadA16GFP for mitochondrial expression or pWCaadA16GFP for expression in chloroplasts) is combined with the mTP (for mitochondrial expression) or cTP (for expression in chloroplasts) in the amounts used in the protoplast transformation experiments described above in a final volume of 100 μl of NBP-99 solution. The mixture is incubated for 10 minutes at room temperature, then incubated with isolated triticale microspores (500 μl, 10^6 microspores/ml, prepared as described in Example 2) for 1 h in the dark at room temperature. NBP-99 solution (500 μl) is added and the mixture is incubated in the dark for 24 h. The cells are imaged using confocal microscopy, as described in Example 2, using MitoTracker® Orange staining to visualize mitochondria.
Microspores are disrupted using a cleaned ceramic bead and aggressive shaking as the tissue is thawing. RLT buffer/B-Me (450 μl) is added and the sample is vortexed. The sample is heated at 55° C. for 1 minute and vortexed again. RNA is extracted using an RNeasy™ Plant Mini Kit (Qiagen), incorporating on-column DNase I digestion into the protocol. The final elution volume is 40 μl. RNA is assessed using both agarose gel […] (to ensure RNA is intact) and spectrophotometry (for quantification).
cDNA is generated using a First Strand Synthesis kit (Invitrogen). RNA (1 μg) is added to each sample and the manufacturer's protocol for synthesis followed, with the exception that the volume of the reaction mixture is increased from 20 μl to 30 μl. A negRT sample containing all reagents but no RNA is included in the cDNA synthesis as a negative control. […]
Real time PCR reactions are performed using QuantiTect™ SYBR™ Green PCR Master Mix (Qiagen) in a 20 μl reaction volume. […]

The subject of data set [2] is Caco-2 cells. Kind of data set: Caco-2 cell transformation with gfp reporter, photometric cell imaging. Particulars: for Fluorescence observed in cells upon transfection / Expression of GFP in mitochondria: Caco-2, mitochondrial gfp-reporter construct; for Expression of GFP in mitochondria: photometric cell imaging; for gfp expression, Photometric Cell Imaging (average counts/sec) Caco-2: pWMaadA16GFP 5 μg + peptide 500 μg, measured at 40 h. In kind it is cell-based, human. The protocol:
(§2) Uptake of labeled peptides by cells is quantified using a photometric detector/cell-imaging system (PTI). An excitation scan is run to determine if uptake has occurred as indicated by peaks at the appropriate wavelengths and if the amount changes in a dose-dependent manner compared to unlabeled cells. A time-based scan is then performed at the optimal excitation and emission wavelength to quantify total uptake, using about 20 cells/view/replicate.
(§3) The ten non-labelled oTPs listed in Tables 3 and 4 were tested for their capability to deliver biologically active DNA to chloroplasts or mitochondria using an oTP-GFP reporter construct transfection assay. oTPs are mixed with a double stranded (ds) DNA construct encoding Aequorea victoria green fluorescent protein (GFP) to form a complex. The plasmid-peptide nanocomplexes formed are incubated with triticale mesophyll protoplasts, microspores, or MDCK, Caco-2, F1112 or MG cells. Detection of a fluorescent signal by confocal microscopy and/or photometric cell imaging would indicate that the dsDNA had been transported into organelles and that transient expression of GFP had occurred. In addition, gene expression can be measured using quantitative real-time PCR to determine gfp mRNA abundance.
as §1
(§4) The dsDNA construct (pWMaadA16GFP. 100 μl of the stock solution, 5 μg) is combined with mTP1 (SEQ ID NO: 1) or mTP4 (SEQ ID NO: 4) (100 μl of the unlabelled stock, 500 μg) and incubated for 15 minutes at 37° C. An 800 μl aliquot of DMEM is added to the mixture and 100 μl of this mixture is then added to each cell monolayer (prepared as described in Example 2) that has 500 μl complete media. The cells are incubated at 37° C. in a humidified atmosphere containing 5% CO2 for 24 h to 72 hr. The uptake and expression of the GFP reporter is measured at 40 h using a photometric detector/cell-imaging system (PTI) as described in Example 2. The cells are also imaged using confocal microscopy as described in Example 2 using MitoTracker® Orange staining to visualize mitochondria.

Data set [3] concerns MG cells. Kind of data set: MG cell transformation with gfp reporter, photometric cell imaging. The class given is cell-based, bovine. Particulars: for Fluorescence observed in cells upon transfection / Expression of GFP in mitochondria: MG, mitochondrial gfp-reporter construct; for Expression of GFP in mitochondria: photometric cell imaging; for gfp expression, Photometric Cell Imaging (average counts/sec) MG: pWMaadA16GFP 5 μg + peptide 500 μg, measured at 40 h. The procedure: as §2, §3, §1, §4

For data set [4], the system named is F1112 cells. Kind of data set: F1112 cell transformation with gfp reporter, photometric cell imaging. The class given is cell-based, bovine. As to conditions: for Fluorescence observed in cells upon transfection / Expression of GFP in mitochondria: F1112, mitochondrial gfp-reporter construct; for Expression of GFP in mitochondria: photometric cell imaging; for gfp expression, Photometric Cell Imaging (average counts/sec) F1112: pWMaadA16GFP 5 μg + peptide 500 μg, measured at 40 h. The procedure:
as §2, §3, §1, §4

Take MAAWMRSLFSPLKKLWIRMH (Zea mays) [mTP2]: in data set [1], the “GFP expression by mitochondria confirmed by qRT-PCR” value (from here on “GFP expression … by qRT-PCR”) is “GFP is expressed”.
As to “MFSYLPRYPLRAASARALVRATRPSYRSALLRYQ (listed as Triticum aestivum) [mTP1]”, in data set [2], the “Fluorescence observed in cells upon transfection” value (shortened to “Fluorescence observed”) is recorded as “fluorescence was observed in all cells”; the “Expression of GFP in mitochondria” value is recorded as “detected”; the “gfp expression, Photometric Cell Imaging (average counts/sec) Caco-2” value came out at 2000000 counts/sec. Also, in data set [3], the “Fluorescence observed” value is listed as “fluorescence was observed in all cells”; the “Expression of GFP in mitochondria” value was “detected”; the “gfp expression, Photometric Cell Imaging (average counts/sec) MG” value is 1900000 counts/sec. Besides, in data set [4], the “Fluorescence observed” value is reported as “fluorescence was observed in all cells”; the “Expression of GFP in mitochondria” value is reported as “detected”; the “gfp expression, Photometric Cell Imaging (average counts/sec) F1112” value worked out at 1900000 counts/sec. Also, in data set [1], the “GFP expression … by qRT-PCR” value is reported as “GFP is expressed”.
On to “MKLLWRLILSRKW (listed as Arabidopsis thaliana) [mTP3]”, for which the “GFP expression … by qRT-PCR” value in data set [1] is “GFP is expressed”.
On the same count and under the same terms, next, “MLFRLRRSVRLRGLLA (listed as Arabidopsis thaliana) [mTP5]”: “GFP is expressed”.
As for “MWWRRSRTNSLRYT (listed as Arabidopsis thaliana) [mTP4]”, in data set [2], the “Fluorescence observed” value is recorded as “no fluorescence was observed”; the “Expression of GFP in mitochondria” value was “detected”; the “gfp expression, Photometric Cell Imaging (average counts/sec) Caco-2” value was found to be 570000 counts/sec. For the same sequence, in data set [3], the “Fluorescence observed” value is “no fluorescence was observed”; the “Expression of GFP in mitochondria” value is reported as “detected”; the “gfp expression, Photometric Cell Imaging (average counts/sec) MG” value is reported as 650000 counts/sec. In addition, in data set [4], the “Fluorescence observed” value is “no fluorescence was observed”; the “Expression of GFP in mitochondria” value is reported as “detected”; the “gfp expression, Photometric Cell Imaging (average counts/sec) F1112” value is 650000 counts/sec. Besides, the “GFP expression … by qRT-PCR” value in data set [1] is recorded as “GFP is expressed”.

These data come from patent publication US20140196172A1, “Organelle Targeting Nanocarriers” (Her Majesty the Queen in Right of Canada, as Repre sented …, priority 2011, published 2014).
